Non-standard residues stand in square brackets, D forms with d. Residues, ends and D or L forms follow the SMILES beside them. ξ: configuration not given here. Ile(3ξ) = CCC(C)[C@H](N)C(=O)O
biological target: T1, Pituitary adenylate cyclase-activating polypeptide (Homo sapiens, UniProt P18509)
T1 sequence (P18509 whole entry): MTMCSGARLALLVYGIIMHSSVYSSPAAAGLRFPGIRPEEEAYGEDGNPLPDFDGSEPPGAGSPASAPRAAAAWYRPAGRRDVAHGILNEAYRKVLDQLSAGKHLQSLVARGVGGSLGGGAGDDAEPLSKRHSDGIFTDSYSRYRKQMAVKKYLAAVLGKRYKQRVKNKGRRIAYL

Row | Ki | SMILES
1 | 50 nM | CSCC[C@H](NC(=O)[C@H](CCC(N)=O)NC(=O)[C@H](CCCCN)NC(=O)[C@H](CCCN=C(N)N)NC(=O)[C@H](Cc1ccc(O)cc1)NC(=O)[C@H](CCCN=C(N)N)NC(=O)[C@H](CO)NC(=O)[C@H](Cc1ccc(O)cc1)NC(=O)[C@@H](N)CO)C(=O)N[C@@H](C)C(=O)N[C@H](C(=O)N[C@@H](CCCCN)C(=O)N[C@@H](CCCCN)C(=O)N[C@@H](Cc1ccc(O)cc1)C(=O)N[C@@H](CC(C)C)C(=O)N[C@@H](C)C(=O)N[C@@H](C)C(=O)N[C@H](C(=O)N[C@@H](CC(C)C)C(=O)NCC(=O)N[C@@H](CCCCN)C(=O)N[C@@H](CCCN=C(N)N)C(=O)N[C@@H](Cc1ccc(O)cc1)C(=O)N[C@@H](CCCCN)C(=O)N[C@@H](CCC(N)=O)C(=O)N[C@@H](CCCN=C(N)N)C(=O)N[C@H](C(=O)N[C@@H](CCCCN)C(=O)N[C@@H](CC(N)=O)C(=O)N[C@@H](CCCCN)C(N)=O)C(C)C)C(C)C)C(C)C [PACAP(9-38)] (H-SYSRYRKQMAVKKYLAAVLGKRYKQRVKNK-NH2)
2 | 29 nM | CCC(C)[C@H](NC(=O)CNC(=O)[C@@H](N)CC(=O)O)C(=O)N[C@@H](Cc1ccccc1)C(=O)N[C@H](C(=O)N[C@@H](CC(=O)O)C(=O)N[C@@H](CO)C(=O)N[C@@H](Cc1ccc(O)cc1)C(=O)N[C@@H](CO)C(=O)N[C@@H](CCCN=C(N)N)C(=O)N[C@@H](Cc1ccc(O)cc1)C(=O)N[C@@H](CCCN=C(N)N)C(=O)N[C@@H](CCCCN)C(=O)N[C@@H](CCC(N)=O)C(=O)N[C@@H](CCSC)C(=O)N[C@@H](C)C(=O)N[C@H](C(=O)N[C@@H](CCCCN)C(=O)N[C@@H](CCCCN)C(=O)N[C@@H](Cc1ccc(O)cc1)C(=O)N[C@@H](CC(C)C)C(=O)N[C@@H](C)C(=O)N[C@@H](C)C(=O)N[C@H](C(=O)N[C@@H](CC(C)C)C(=O)NCC(=O)N[C@@H](CCCCN)C(=O)N[C@@H](CCCN=C(N)N)C(=O)N[C@@H](Cc1ccc(O)cc1)C(=O)N[C@@H](CCCCN)C(=O)N[C@@H](CCC(N)=O)C(=O)N[C@@H](CCCN=C(N)N)C(=O)N[C@H](C(=O)N[C@@H](CCCCN)C(=O)N[C@@H](CC(N)=O)C(=O)N[C@@H](CCCCN)C(N)=O)C(C)C)C(C)C)C(C)C)[C@@H](C)O (some centres not stated) [PACAP(3-38)] (H-DG[Ile(3ξ)]FTDSYSRYRKQMAVKKYLAAVLGKRYKQRVKNK-NH2)
3 | 500 nM | CCC(C)[C@H](NC(=O)CN)C(=O)N[C@@H](Cc1ccccc1)C(=O)N[C@H](C(=O)N[C@@H](CC(=O)O)C(=O)N[C@@H](CO)C(=O)N[C@@H](Cc1ccc(O)cc1)C(=O)N[C@@H](CO)C(=O)N[C@@H](CCCN=C(N)N)C(=O)N[C@@H](Cc1ccc(O)cc1)C(=O)N[C@@H](CCCN=C(N)N)C(=O)N[C@@H](CCCCN)C(=O)N[C@@H](CCC(N)=O)C(=O)N[C@@H](CCSC)C(=O)N[C@@H](C)C(=O)N[C@H](C(=O)N[C@@H](CCCCN)C(=O)N[C@@H](CCCCN)C(=O)N[C@@H](Cc1ccc(O)cc1)C(=O)N[C@@H](CC(C)C)C(=O)N[C@@H](C)C(=O)N[C@@H](C)C(=O)N[C@H](C(=O)N[C@@H](CC(C)C)C(N)=O)C(C)C)C(C)C)[C@@H](C)O (some centres not stated) [PACAP(4-27)] (H-G[Ile(3ξ)]FTDSYSRYRKQMAVKKYLAAVL-NH2)
4 | 1300 nM | CSCC[C@H](NC(=O)[C@H](CCC(N)=O)NC(=O)[C@H](CCCCN)NC(=O)[C@H](CCCN=C(N)N)NC(=O)[C@H](Cc1ccc(O)cc1)NC(=O)[C@H](CCCN=C(N)N)NC(=O)[C@H](CO)NC(=O)[C@H](Cc1ccc(O)cc1)NC(=O)[C@H](CO)NC(=O)[C@@H](N)CC(=O)O)C(=O)N[C@@H](C)C(=O)N[C@H](C(=O)N[C@@H](CCCCN)C(=O)N[C@@H](CCCCN)C(=O)N[C@@H](Cc1ccc(O)cc1)C(=O)N[C@@H](CC(C)C)C(=O)N[C@@H](C)C(=O)N[C@@H](C)C(=O)N[C@H](C(=O)N[C@@H](CC(C)C)C(N)=O)C(C)C)C(C)C [PACAP(8-27)] (H-DSYSRYRKQMAVKKYLAAVL-NH2)
5 | 100 nM | CSCC[C@H](NC(=O)[C@H](CCC(N)=O)NC(=O)[C@H](CCCCN)NC(=O)[C@H](CCCN=C(N)N)NC(=O)[C@H](Cc1ccc(O)cc1)NC(=O)[C@H](CCCN=C(N)N)NC(=O)[C@H](CO)NC(=O)[C@H](Cc1ccc(O)cc1)NC(=O)[C@H](CO)NC(=O)[C@H](CC(=O)O)NC(=O)[C@@H](N)[C@@H](C)O)C(=O)N[C@@H](C)C(=O)N[C@H](C(=O)N[C@@H](CCCCN)C(=O)N[C@@H](CCCCN)C(=O)N[C@@H](Cc1ccc(O)cc1)C(=O)N[C@@H](CC(C)C)C(=O)N[C@@H](C)C(=O)N[C@@H](C)C(=O)N[C@H](C(=O)N[C@@H](CC(C)C)C(N)=O)C(C)C)C(C)C [PACAP(6-27)] (H-TDSYSRYRKQMAVKKYLAAVL-NH2)
6 | 30 nM | CSCC[C@H](NC(=O)[C@H](CCC(N)=O)NC(=O)[C@H](CCCCN)NC(=O)[C@H](CCCN=C(N)N)NC(=O)[C@H](Cc1ccc(O)cc1)NC(=O)[C@H](CCCN=C(N)N)NC(=O)[C@H](CO)NC(=O)[C@H](Cc1ccc(O)cc1)NC(=O)[C@H](CO)NC(=O)[C@@H](N)CC(=O)O)C(=O)N[C@@H](C)C(=O)N[C@H](C(=O)N[C@@H](CCCCN)C(=O)N[C@@H](CCCCN)C(=O)N[C@@H](Cc1ccc(O)cc1)C(=O)N[C@@H](CC(C)C)C(=O)N[C@@H](C)C(=O)N[C@@H](C)C(=O)N[C@H](C(=O)N[C@@H](CC(C)C)C(=O)NCC(=O)N[C@@H](CCCCN)C(=O)N[C@@H](CCCN=C(N)N)C(=O)N[C@@H](Cc1ccc(O)cc1)C(=O)N[C@@H](CCCCN)C(=O)N[C@@H](CCC(N)=O)C(=O)N[C@@H](CCCN=C(N)N)C(=O)N[C@H](C(=O)N[C@@H](CCCCN)C(=O)N[C@@H](CC(N)=O)C(=O)N[C@@H](CCCCN)C(N)=O)C(C)C)C(C)C)C(C)C [PACAP(8-38)] (H-DSYSRYRKQMAVKKYLAAVLGKRYKQRVKNK-NH2)
7 | 150 nM | CSCC[C@H](NC(=O)[C@H](CCC(N)=O)NC(=O)[C@H](CCCCN)NC(=O)[C@H](CCCN=C(N)N)NC(=O)[C@H](Cc1ccc(O)cc1)NC(=O)[C@H](CCCN=C(N)N)NC(=O)[C@H](CO)NC(=O)[C@H](Cc1ccc(O)cc1)NC(=O)[C@H](CO)NC(=O)[C@H](CC(=O)O)NC(=O)[C@@H](NC(=O)[C@@H](N)Cc1ccccc1)[C@@H](C)O)C(=O)N[C@@H](C)C(=O)N[C@H](C(=O)N[C@@H](CCCCN)C(=O)N[C@@H](CCCCN)C(=O)N[C@@H](Cc1ccc(O)cc1)C(=O)N[C@@H](CC(C)C)C(=O)N[C@@H](C)C(=O)N[C@@H](C)C(=O)N[C@H](C(=O)N[C@@H](CC(C)C)C(N)=O)C(C)C)C(C)C [PACAP(5-27)] (H-FTDSYSRYRKQMAVKKYLAAVL-NH2)

— BindingDB's records for doi:10.1111/j.1432-1033.1992.tb17252.x (Universit&Eacute, 1992)
